Patent publication US6340689B1 (priority 1999, dated 2002)
Converted amounts (≈) assume the structure as drawn.

Tests used:
[1] = system: L. dumoffii; test: organism not typed; format: cell-based; details: for MIC: 48 h, read-out: MIC Range
[2] = system: L. longbeacheae; test: organism not typed; format: cell-based; details: for MIC: 48 h, read-out: MIC Range
[3] = system: Other Legionella spp.; test: microbe, parasite or virus in culture; format: cell-based; details: for MIC: 48 h, read-out: MIC Range
[4] = system: L. pneumophila serogroup 1; test: microbe, parasite or virus in culture; format: cell-based, Legionella pneumophila; details: Legionella pneumophila; for MIC: 48 h, read-out: MIC Range; for MIC90: L. pneumophila serogroup 1 (n = 85)
[5] = system: isolates of Legionella pneumophila and other Legionella spp.; test: microbe, parasite or virus in culture; format: cell-based
[6] = system: L. pneumophila serogroup 5; test: microbe, parasite or virus in culture; format: cell-based; details: Legionella pneumophila; for MIC: 48 h, read-out: MIC Range
[7] = system: Erythromycin-susceptible Legionella spp. other than L. pneumophila; format: cell-based; details: Erythromycin-susceptible Legionella spp. (n = 13); 4 × MIC; mean ± SD
[8] = system: L. pneumophila serogroup 3; test: microbe, parasite or virus in culture; format: cell-based; details: Legionella pneumophila; for MIC: 48 h, read-out: MIC Range
[9] = system: L. pneumophila serogroup 2; test: microbe, parasite or virus in culture; format: cell-based; details: Legionella pneumophila; for MIC: 48 h, read-out: MIC Range
[10] = system: L. pneumophila serogroup 6; test: microbe, parasite or virus in culture; format: cell-based; details: Legionella pneumophila; for MIC: 48 h, read-out: MIC Range
[11] = system: L. pneumophila serogroup 4; test: microbe, parasite or virus in culture; format: cell-based; details: Legionella pneumophila; for MIC: 48 h, read-out: MIC Range
[12] = system: L. pneumophila serogroup 8, 9; test: microbe, parasite or virus in culture; format: cell-based; details: Legionella pneumophila; for MIC: 48 h, read-out: MIC Range
[13] = system: L. micadadei; test: organism not typed; format: cell-based, L. micdadei; details: for MIC: 48 h, read-out: MIC Range
[14] = system: L. pneumophila serogroup 7; test: microbe, parasite or virus in culture; format: cell-based; details: Legionella pneumophila; for MIC: 48 h, read-out: MIC Range
[15] = system: Erythromycin-susceptible L. pneumophila; format: cell-based, Legionella pneumophila; details: Erythromycin-susceptible L. pneumophila (n = 15); 4 × MIC; mean ± SD

| Compound | MIC50 [1] [µg/mL] | MIC90 [1] [µg/mL] | MIC [1] [µg/mL] | MIC50 [2] [µg/mL] | MIC90 [2] [µg/mL] | MIC [2] [µg/mL] | MIC50 [3] [µg/mL] | MIC90 [3] [µg/mL] | MIC [3] [µg/mL] | MIC50 [4] [µg/mL] | MIC [4] [µg/mL] | MIC90 [4] [µg/mL] | MIC90 [5] [µg/mL] | MIC50 [6] [µg/mL] | MIC90 [6] [µg/mL] | MIC [6] [µg/mL] | Mean PAE [7] [h] | MIC50 [8] [µg/mL] | MIC90 [8] [µg/mL] | MIC [8] [µg/mL] | further results |
| --- | --- | --- | --- | --- | --- | --- | --- | --- | --- | --- | --- | --- | --- | --- | --- | --- | --- | --- | --- | --- | --- |
| COc1c(N2C[C@@H]3CCCN[C@@H]3C2)c(F)cc2c(=O)c(C(=O)O)cn(C3CC3)c12 [Moxifloxacin] | 0.03 (≈ 0.0747 µM) | 0.03 (≈ 0.0747 µM) | 0.008 to 0.03 (≈ 0.0199 to 0.0747 µM) | 0.016 (≈ 0.0399 µM) | 0.03 (≈ 0.0747 µM) | 0.008 to 0.03 (≈ 0.0199 to 0.0747 µM) | 0.008 (≈ 0.0199 µM) | 0.03 (≈ 0.0747 µM) | 0.008 to 0.03 (≈ 0.0199 to 0.0747 µM) | 0.016 (≈ 0.0399 µM) | 0.004 to 0.03 (≈ 0.00996 to 0.0747 µM) | 0.016 (≈ 0.0399 µM) | 0.016 (≈ 0.0399 µM) | 0.016 (≈ 0.0399 µM) | 0.016 (≈ 0.0399 µM) | 0.004 to 0.03 (≈ 0.00996 to 0.0747 µM) | 1.18 ± 2 | 0.008 (≈ 0.0199 µM) | 0.016 (≈ 0.0399 µM) | 0.004 to 0.016 (≈ 0.00996 to 0.0399 µM) | MIC50 [9]: 0.008 µg/mL (≈ 0.0199 µM); MIC90 [9]: 0.008 µg/mL (≈ 0.0199 µM); MIC [9]: 0.004 to 0.016 µg/mL (≈ 0.00996 to 0.0399 µM); MIC50 [10]: 0.008 µg/mL (≈ 0.0199 µM); MIC90 [10]: 0.016 µg/mL (≈ 0.0399 µM); MIC [10]: 0.004 to 0.016 µg/mL (≈ 0.00996 to 0.0399 µM); MIC50 [11]: 0.016 µg/mL (≈ 0.0399 µM); MIC90 [11]: 0.016 µg/mL (≈ 0.0399 µM); MIC [11]: 0.004 to 0.016 µg/mL (≈ 0.00996 to 0.0399 µM); MIC50 [12]: 0.016 µg/mL (≈ 0.0399 µM); MIC90 [12]: 0.016 µg/mL (≈ 0.0399 µM); MIC [12]: 0.016 µg/mL (≈ 0.0399 µM); MIC50 [13]: 0.016 µg/mL (≈ 0.0399 µM); MIC90 [13]: 0.03 µg/mL (≈ 0.0747 µM); MICs fold more active than erythromycin [13]: 5 fold; MIC [13]: 0.008 to 0.03 µg/mL (≈ 0.0199 to 0.0747 µM); MIC50 [14]: ≤ 0.004 µg/mL; MIC90 [14]: 0.016 µg/mL (≈ 0.0399 µM); MIC [14]: 0.004 to 0.016 µg/mL (≈ 0.00996 to 0.0399 µM); Mean PAE [15]: 3.59 ± 3 h |
| CC1COc2c(N3CCN(C)CC3)c(F)cc3c(=O)c(C(=O)O)cn1c23 (centres unmarked) [Ofloxacin] | 0.03 (≈ 0.083 µM) | 0.03 (≈ 0.083 µM) | 0.03 (≈ 0.083 µM) | 0.03 (≈ 0.083 µM) | 0.03 (≈ 0.083 µM) | 0.016 to 0.03 (≈ 0.0443 to 0.083 µM) | 0.016 (≈ 0.0443 µM) | 0.06 (≈ 0.166 µM) | 0.004 to 0.06 (≈ 0.0111 to 0.166 µM) | 0.03 (≈ 0.083 µM) | 0.008 to 0.03 (≈ 0.0221 to 0.083 µM) | 0.03 (≈ 0.083 µM) | 0.03 (≈ 0.083 µM) | 0.016 (≈ 0.0443 µM) | 0.03 (≈ 0.083 µM) | 0.008 to 0.03 (≈ 0.0221 to 0.083 µM) | 3.04 ± 2 | 0.016 (≈ 0.0443 µM) | 0.03 (≈ 0.083 µM) | 0.016 to 0.03 (≈ 0.0443 to 0.083 µM) | MIC50 [9]: 0.016 µg/mL (≈ 0.0443 µM); MIC90 [9]: 0.03 µg/mL (≈ 0.083 µM); MIC [9]: 0.008 to 0.03 µg/mL (≈ 0.0221 to 0.083 µM); MIC50 [10]: 0.03 µg/mL (≈ 0.083 µM); MIC90 [10]: 0.03 µg/mL (≈ 0.083 µM); MIC [10]: 0.008 to 0.03 µg/mL (≈ 0.0221 to 0.083 µM); MIC50 [11]: 0.03 µg/mL (≈ 0.083 µM); MIC90 [11]: 0.03 µg/mL (≈ 0.083 µM); MIC [11]: 0.008 to 0.03 µg/mL (≈ 0.0221 to 0.083 µM); MIC50 [12]: 0.03 µg/mL (≈ 0.083 µM); MIC90 [12]: 0.03 µg/mL (≈ 0.083 µM); MIC [12]: 0.03 µg/mL (≈ 0.083 µM); MIC50 [13]: 0.03 µg/mL (≈ 0.083 µM); MIC90 [13]: 0.03 µg/mL (≈ 0.083 µM); MICs fold more active than erythromycin [13]: 5 fold; MIC [13]: 0.03 µg/mL (≈ 0.083 µM); MIC50 [14]: 0.03 µg/mL (≈ 0.083 µM); MIC90 [14]: 0.03 µg/mL (≈ 0.083 µM); MIC [14]: 0.03 µg/mL (≈ 0.083 µM); Mean PAE [15]: 3.53 ± 3 h |
| CO[C@H]1/C=C/O[C@@]2(C)Oc3c(C)c(O)c4c(O)c(c(/C=N/N5CCN(C)CC5)c(O)c4c3C2=O)NC(=O)/C(C)=C\C=C\[C@H](C)[C@H](O)[C@@H](C)[C@@H](O)[C@@H](C)[C@H](OC(C)=O)[C@@H]1C [Rifampicin] | 0.008 (≈ 0.00972 µM) | 0.016 (≈ 0.0194 µM) | 0.004 to 0.03 (≈ 0.00486 to 0.0365 µM) | ≤ 0.004 | 0.06 (≈ 0.0729 µM) | 0.004 to 0.06 (≈ 0.00486 to 0.0729 µM) | ≤ 0.004 | 0.008 (≈ 0.00972 µM) | 0.004 to 0.008 (≈ 0.00486 to 0.00972 µM) | ≤ 0.004 | 0.004 to 0.008 (≈ 0.00486 to 0.00972 µM) | 0.008 (≈ 0.00972 µM) | ≤ 0.008 | ≤ 0.004 | ≤ 0.004 | ≤ 0.004 | 3.09 ± 4 | ≤ 0.004 | ≤ 0.004 | ≤ 0.004 | MIC50 [9]: ≤ 0.004 µg/mL; MIC90 [9]: ≤ 0.004 µg/mL; MIC [9]: ≤ 0.004 µg/mL; MIC50 [10]: ≤ 0.004 µg/mL; MIC90 [10]: ≤ 0.004 µg/mL; MIC [10]: 0.004 to 0.008 µg/mL (≈ 0.00486 to 0.00972 µM); MIC50 [11]: ≤ 0.004 µg/mL; MIC90 [11]: ≤ 0.004 µg/mL; MIC [11]: 0.004 to 0.008 µg/mL (≈ 0.00486 to 0.00972 µM); MIC50 [12]: ≤ 0.004 µg/mL; MIC90 [12]: ≤ 0.004 µg/mL; MIC [12]: ≤ 0.004 µg/mL; MIC50 [13]: 0.008 µg/mL (≈ 0.00972 µM); MIC90 [13]: 0.008 µg/mL (≈ 0.00972 µM); MIC [13]: 0.008 µg/mL (≈ 0.00972 µM); MIC50 [14]: ≤ 0.004 µg/mL; MIC90 [14]: ≤ 0.004 µg/mL; MIC [14]: ≤ 0.004 µg/mL; Mean PAE [15]: 2.86 ± 5 h |
| N[C@@H]1[C@H]2CN(c3nc4c(cc3F)c(=O)c(C(=O)O)cn4-c3ccc(F)cc3F)C[C@@H]12 [Trovafloxacin] | 0.008 (≈ 0.0192 µM) | 0.008 (≈ 0.0192 µM) | 0.004 to 0.008 (≈ 0.00961 to 0.0192 µM) | ≤ 0.004 | ≤ 0.004 | ≤ 0.004 | ≤ 0.004 | ≤ 0.004 | ≤ 0.004 | ≤ 0.004 | 0.004 to 0.016 (≈ 0.00961 to 0.0384 µM) | ≤ 0.004 | ≤ 0.008 | ≤ 0.004 | ≤ 0.004 | 0.004 to 0.008 (≈ 0.00961 to 0.0192 µM) | 1.22 ± 1 | ≤ 0.004 | ≤ 0.004 | ≤ 0.004 | MIC50 [9]: ≤ 0.004 µg/mL; MIC90 [9]: ≤ 0.004 µg/mL; MIC [9]: ≤ 0.004 µg/mL; MIC50 [10]: ≤ 0.004 µg/mL; MIC90 [10]: ≤ 0.004 µg/mL; MIC [10]: ≤ 0.004 µg/mL; MIC50 [11]: ≤ 0.004 µg/mL; MIC90 [11]: ≤ 0.004 µg/mL; MIC [11]: ≤ 0.004 µg/mL; MIC50 [12]: ≤ 0.004 µg/mL; MIC90 [12]: ≤ 0.004 µg/mL; MIC [12]: ≤ 0.004 µg/mL; MIC50 [13]: ≤ 0.004 µg/mL; MIC90 [13]: ≤ 0.004 µg/mL; MIC [13]: ≤ 0.004 µg/mL; MIC50 [14]: ≤ 0.004 µg/mL; MIC90 [14]: ≤ 0.004 µg/mL; MIC [14]: ≤ 0.004 µg/mL; Mean PAE [15]: 1.71 ± 1 h |
